Reference: PubChem BioAssay AID2060331 (Molecular Pharmacology Branch, DTP, NCI, 2025)
pIC50: −log10 of the molar value.

Test system: Hs578T multi-cell spheroids, viability
Test: Anticancer human tumor Hs578T cell line growth inhibition [IpAb];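 also: drug exposure lasted 7 days before readout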
Settings: for pIC50: curve of first compound; for viability, T/C: stronger effect = lower value
Method in brief: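 Spheroids of 60% malignant cells, 25% HUVEC and 15% MSC were exposed to targeted agents combined with ipatasertib or abemaciclib. Doses started at or near clinical Cmax (10 microM when unknown) and fell in half-log steps.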

[1] = second compound 0.01 µM, first compound 0.0316 µM
[2] = second compound 0.01 µM, first compound 0.1 µM
[3] = second compound 0.01 µM, first compound 0.316 µM
[4] = second compound 0.01 µM, first compound 1 µM
[5] = second compound 0.01 µM, first compound 3.16 µM
[6] = second compound 0.01 µM, first compound 10 µM
[7] = second compound 0.0316 µM, first compound 0.0316 µM
[8] = second compound 0.0316 µM, first compound 0.1 µM
[9] = second compound 0.0316 µM, first compound 0.316 µM
[10] = second compound 0.0316 µM, first compound 1 µM
[11] = second compound 0.0316 µM, first compound 3.16 µM
[12] = second compound 0.0316 µM, first compound 10 µM
[13] = second compound 0.1 µM, first compound 0.0316 µM
[14] = second compound 0.1 µM, first compound 0.1 µM
[15] = second compound 0.1 µM, first compound 0.316 µM
[16] = second compound 0.1 µM, first compound 1 µM
[17] = second compound 0.1 µM, first compound 3.16 µM
[18] = second compound 0.1 µM, first compound 10 µM
[19] = second compound 0.316 µM, first compound 0.0316 µM
[20] = second compound 0.316 µM, first compound 0.1 µM
[21] = second compound 0.316 µM, first compound 0.316 µM
[22] = second compound 0.316 µM, first compound 1 µM
[23] = second compound 0.316 µM, first compound 3.16 µM
[24] = second compound 0.316 µM, first compound 10 µM
[25] = second compound 1 µM, first compound 0.0316 µM
[26] = second compound 1 µM, first compound 0.1 µM
[27] = second compound 1 µM, first compound 0.316 µM
[28] = second compound 1 µM, first compound 1 µM
[29] = second compound 1 µM, first compound 3.16 µM
[30] = second compound 1 µM, first compound 10 µM

Compound	pIC50 (second compound 0.01 µM)	pIC50 (second compound 0.0316 µM)	pIC50 (second compound 0.1 µM)	pIC50 (second compound 0.316 µM)	pIC50 (second compound 1 µM)	viability, T/C [1]	viability, T/C [2]	viability, T/C [3]	viability, T/C [4]	viability, T/C [5]	viability, T/C [6]	viability, T/C [7]	viability, T/C [8]	viability, T/C [9]	viability, T/C [13]	viability, T/C [14]	viability, T/C [19]	viability, T/C [20]	viability, T/C [25]	viability, T/C [26]	further results
C=CC(=O)N1CCN(c2nc(=O)n(-c3c(C)ccnc3C(C)C)c3nc(-c4c(O)cccc4F)c(F)cc23)C(C)C1 (stereo not given) + CCN1CCN(Cc2ccc(Nc3ncc(F)c(-c4cc(F)c5nc(C)n(C(C)C)c5c4)n3)nc2)CC1	< 5.00	< 5.00	< 5.00	< 5.00	< 5.00	97.5%	103%	101%	96.2%	98.8%	74.5%	96%	97.2%	100%	92.5%	86.3%	93.2%	95.5%	104%	107%	viability, T/C [10]: 96%; viability, T/C [11]: 92.3%; viability, T/C [12]: 76.8%; viability, T/C [15]: 94.1%; viability, T/C [16]: 102%; viability, T/C [17]: 92.5%; viability, T/C [18]: 77.2%; viability, T/C [21]: 98%; viability, T/C [22]: 101%; viability, T/C [23]: 92.8%; viability, T/C [24]: 77.9%; viability, T/C [27]: 112%; viability, T/C [28]: 118%; viability, T/C [29]: 101%; viability, T/C [30]: 88.4%
Cn1ncc(Cl)c1-c1cc(C(=O)NC(CN)Cc2cccc(F)c2)sc1Cl (stereo not given) + CCN1CCN(Cc2ccc(Nc3ncc(F)c(-c4cc(F)c5nc(C)n(C(C)C)c5c4)n3)nc2)CC1	5.85	5.88	6.10	6.08	5.92	92.1%	83.3%	67.1%	49.1%	46.8%	0.26%	86%	76.8%	65.2%	80.5%	67.5%	81.2%	72%	90%	76.6%	viability, T/C [10]: 51.2%; viability, T/C [11]: 42%; viability, T/C [12]: 0.24%; viability, T/C [15]: 52.9%; viability, T/C [16]: 42.5%; viability, T/C [17]: 42.5%; viability, T/C [18]: 0.24%; viability, T/C [21]: 56.7%; viability, T/C [22]: 47.6%; viability, T/C [23]: 33.9%; viability, T/C [24]: 0.21%; viability, T/C [27]: 67.3%; viability, T/C [28]: 60.1%; viability, T/C [29]: 7.93%; viability, T/C [30]: 0.46%
Cn1ncnc1[C@H]1c2n[nH]c(=O)c3cc(F)cc(c23)N[C@@H]1c1ccc(F)cc1 + CCN1CCN(Cc2ccc(Nc3ncc(F)c(-c4cc(F)c5nc(C)n(C(C)C)c5c4)n3)nc2)CC1	< 7.00	< 7.00	< 7.00	< 7.00	< 7.00	93.4%	88.4%					87.3%	84.8%		85.5%	85.7%	84.6%	85.3%	102%	94.7%	viability, T/C (second compound 0.01 µM, first compound 0.000316 µM): 101%; viability, T/C (second compound 0.01 µM, first compound 0.001 µM): 100%; viability, T/C (second compound 0.01 µM, first compound 0.00316 µM): 95.2%; viability, T/C (second compound 0.01 µM, first compound 0.01 µM): 88.1%; viability, T/C (second compound 0.0316 µM, first compound 0.000316 µM): 99.3%; viability, T/C (second compound 0.0316 µM, first compound 0.001 µM): 94.3%; viability, T/C (second compound 0.0316 µM, first compound 0.00316 µM): 91.5%; viability, T/C (second compound 0.0316 µM, first compound 0.01 µM): 93%; viability, T/C (second compound 0.1 µM, first compound 0.000316 µM): 84.9%; viability, T/C (second compound 0.1 µM, first compound 0.001 µM): 87.8%; viability, T/C (second compound 0.1 µM, first compound 0.00316 µM): 86.8%; viability, T/C (second compound 0.1 µM, first compound 0.01 µM): 81.8%; viability, T/C (second compound 0.316 µM, first compound 0.000316 µM): 89.8%; viability, T/C (second compound 0.316 µM, first compound 0.001 µM): 88.2%; viability, T/C (second compound 0.316 µM, first compound 0.00316 µM): 91.8%; viability, T/C (second compound 0.316 µM, first compound 0.01 µM): 86.7%; viability, T/C (second compound 1 µM, first compound 0.000316 µM): 106%; viability, T/C (second compound 1 µM, first compound 0.001 µM): 102%; viability, T/C (second compound 1 µM, first compound 0.00316 µM): 104%; viability, T/C (second compound 1 µM, first compound 0.01 µM): 102%
